{
  "source": "patent US20250041317A1",
  "about": "“NEUROACTIVE STEROID FOR THE TREATMENT OF HUNTINGTON'S DISEASE” (SAGE THERAPEUTICS, INC., priority 2021, published 2025)",
  "key": {"[1]": {"tested_on": "subjects with early manifest Huntington's disease", "assay": "Cogstate Groton Maze Learning Test (GML), executive function", "format": "in vivo, human", "conditions": "HD Subjects (Part B), 1 mg, all timepoints except for day 4", "description": "(§1) Sentinel dosing of subjects was employed for Cohort 3.\n(§2) Cogstate Battery was used to assess cognitive functioning, such as attention, working memory, information processing speed, executive function, and motor skills, and consists of the Stop Signal Reaction Test (STOP), Detection Task (DET), Identification Task (IDN), One Back Learning Task (ONB), Two Back Learning Task (TWOB), and Groton Maze Learning Test (GML).\n(§3) The endpoints for each Cogstate Battery tests are change from baseline scores at each post-baseline assessment.\n(§4) Mean change from baseline scores at all post-baseline assessments were analyzed using mixed-effect repeated measure model (MMRM); with dose, visit, interaction between dose and visit as fixed effects, baseline as a covariate and subject as random effect. Unstructured covariance structure was used to model the variance-covariance matrix of the repeated measurements. If estimation issues arose during construction of covariance structure, compound symmetry was used in place of unstructured. The least square (LS) means differences between dose groups and placebo at each post baseline timepoint were estimated along with 95% confidence intervals."}, "[2]": {"tested_on": "Patients with Huntington's Disease", "assay": "Assessment of psychomotor speed (Psychomotor Vigilance Task Test, FIG. 5)", "format": "in vivo, human", "conditions": "patients with HD, 1 mg", "description": "FIG. 5 depicts performance measured using the Psychomotor Vigilance Task Test in Patients with Huntington's Disease and Healthy Participants. Z-Transformed Change from Baseline to Day 14 (Mean±SE) is depicted.\n(§5) Additional objectives included an assessment of changes in subject performance on cognitive tasks."}, "[3]": {"tested_on": "subjects with early manifest Huntington's disease", "assay": "Cogstate Two Back Test (TWOB), working memory", "format": "in vivo, human", "conditions": "HD Subjects (Part B), 1 mg", "description": "as §1, §2, §3, §4"}, "[4]": {"assay": "Phase 1 MAD study: safety and tolerability of Compound 1 Oral Solution", "text": "Subjects were assigned sequentially to one of 3 cohorts. […] Cohorts 1 and 2 were divided into 4 sub-groups of 3 subjects. Each sub-group in Part A started dosing on Day 1 over the course of 4 consecutive days, with the remaining dosing days overlapping in a staggered fashion. A maximum of 3 Part A subjects per calendar day per site will begin treatment at Day 1.\nThe Screening Period began with the signing of the informed consent form (ICF) at the Screening Visit. An optional genetic sample was collected during screening. On Day −2 (Part A) or Day −1 (Part B), qualified subjects were admitted to the unit. Subjects were discharged from the unit on Day 17 after completion of all assessments, provided that the Investigator was satisfied that it is safe for the subject to be discharged. In total, the inpatient stay for Part A subjects was approximately 19 days, and approximately 18 days for Part B subjects. Subjects returned for a Follow-up Visit on Day 21 (±2 days), approximately one week after the end of treatment."}, "Patients with HD": {"tested_on": "Patients with HD", "assay": "Tests of executive functioning (Cogstate Battery)", "format": "in vivo, human", "conditions": "1 mg, FIGS. 1-4", "description": "as §5, §2, §3"}, "[5]": {"conditions": "healthy adults (0.5 mg or 1.0 mg) and subjects with early manifest HD, multiple oral doses"}},
  "data": [
    {"compound": "C[C@H](CC[C@](C)(O)C(F)(F)F)[C@H]1CC[C@H]2[C@@H]3CC=C4C[C@@](C)(O)CC[C@]4(C)[C@H]3CC[C@]12C", "note": "[Compound 1]", "values": [
      {"measurement": "Performance in the GML test vs baseline", "setting": "[1]", "result": "improvement"},
      {"measurement": "Change from baseline on assessment of psychomotor speed", "setting": "[2]", "result": "No changes from baseline were observed"},
      {"measurement": "Performance on the two-back test vs baseline, statistical significance", "setting": "[3]; Days 8-14, threshold p<0.05", "result": "significant improvement compared to baseline"},
      {"measurement": "Performance on the two-back test vs baseline", "setting": "[3]; all timepoints after baseline", "result": "improvement in performance"},
      {"measurement": "TEAEs in Part B", "setting": "[4]; Part B, subjects with HD", "result": "No TEAEs were reported"},
      {"measurement": "Deaths", "setting": "[4]; [5]", "result": "No deaths were reported"},
      {"measurement": "Serious AEs", "setting": "[4]; [5]", "result": "No serious AEs were reported"},
      {"measurement": "TEAEs leading to study withdrawal or treatment discontinuation", "setting": "[4]; [5]", "result": "No TEAEs leading to study withdrawal or treatment discontinuation were reported"},
      {"measurement": "Suicidal ideation or suicidal behavior compared to baseline, C-SSRS", "setting": "[4]; measured by C-SSRS", "result": "no signals for increased suicidal ideation or suicidal behavior"},
      {"measurement": "Change from baseline on tests of executive functioning", "setting": "Patients with HD", "result": "improvements from baseline"}
    ]}
  ]
}
